Values belong to the molecule of their own block, whether it stands above or below them.
Columns and labels:
HaCat cells [1] = assay: Cell viability of ALA-treated HaCat cells after red light irradiation; assay type: cell-based, human; conditions: 1 mM
Method: HaCat cells were seeded in 96-well plates and grown to confluence. Confluent cells were treated with 8 mM ALA for 2 hours. Cells then received 1 mM of Formula II(a)(1), II(b)(1)+II(c)(1), or II(bk). Following a one-hour incubation, cells were irradiated for 3 minutes and immediately washed with naïve cell culture media once. Additional cell culture media was added and the cells were cultured for 24 hours. A cell viabilty agent was added to each well and incubated for 2 hours. Cell viability was analyzed at the conclusion of this incubation by measuring the fluorescence intensity (excitation/emission 560/590) of each well. Results shown in FIG. 26 indicate that control cells (without conjugated fused polycyclic compound treatment) were almost completely killed by phototoxic ROS induced by ALA and light irradiation. Cell viability (cell metabolic activity) of light irradiated cells (without conjugated fused polycyclic) was only […] of normal cell control (no treatment). […] About 50% of Formula II(a)(1) treated cells survived, while cells without conjugated fused polycyclic compound exposure and cells treated with II(bk) were almost 100% dead. […] The Formula II(a)(1) was also observed to protect cells from light irradiation induced injury (relative cell viability 61%). […]

[2] = Solubility in DMSO, PBS buffer and cell culture media; assay type: physicochemical
Method: All Conjugated fused polycyclic compounds tested (including Formulas II(a)(1), II(b)(1) and II(c)(1), and II(bk)) are highly soluble in DMSO, but poorly soluble in PBS buffer and cell culture medium. Formulas II(b)(1) and II(c)(1) can remain soluble in PBS buffer or cell culture medium if its concentration is less 0.2 mM. At concentrations higher than 0.2 mM, the solution begins to cloud and become emulsion like. This emulsion is able to remain stable for as long as 8 hours. Formula II(bk) is less soluble in PBS buffer and cell culture medium. It was only observed to dissolve in PBS at concentrations of 0.1 mM or less. Similar to Formulas II(b)(1) and II(c)(1), increasing Formula II(bk) concentration above 0.1 mM results in a cloudy emulsion like solution. But this cloudy solution is fairly stable and can be kept for more than 3 days.

[3] = tested on: visible light-induced free radicals in pig skin; assay: Visible light-induced free radicals in ALA-treated pig skin by Electron Spin Resonance; conditions: for Free Radicals (%): relative to 0 mM; for Free Radicals (a.u.): topical, ALA-treated pig skin
Method: A conjugated fused tricycle compound according to Formula II(a)(1) reduced visible light-induced free radicals in skin by up to 89% and did so in a dose-dependent manner (FIG. 21). The study was conducted using pig skin, which is recognized for its similarity to human skin. Topical application of aminolevulinic acid (ALA) induced the skin to over-produce the endogenous photosensitizer Protoporphyrin IX (PPIX). Solutions of Formula II(a)(1) at different concentrations were then topically applied to the ALA treated skin after which it was exposed to bright green light. The resulting free radical content of the skin was then measured by Electron Spin Resonance (ESR). Studies conducted in solution have shown that Formula II(a)(1) suppresses singlet oxygen production by PPIX. […] The mechanisms of action of Formula II(a)(1) and Tocopherol are different: the former prevents free radicals from forming; the latter scavenges free radicals after they appear.

HaCat cells [4] = assay: Dark toxicity analysis in HaCat cells (no irradiation); assay type: cell-based, human; conditions: 1 mM with ALA, no red light irradiation
Method: To make sure that ALA and conjugated fused polycyclics treatments themselves are not influencing cell viability, (or cause cellular toxicity), dark toxicity analysis was performed. The experiment procedures were exactly same as above for cell viability analysis except that the red light irradiation step was omitted.

[5] = Singlet oxygen phosphorescence from photoexcited protoporphyrin IX in air saturated DMSO-d6; assay type: physicochemical
Source text: Singlet oxygen was generated by pulsed laser excitation in the UV (355 nm) by protoporphyrin IX. Protoporphyrin IX was selected on the basis of its high extinction coefficient (FIG. 2). The solvent DMSO-d6 was selected because of good solubility of the sensitizer and stabilizers. The deuterated form of DMSO was used because of the longer singlet oxygen lifetime in deuterated solvents compared to solvents containing hydrogen. FIG. 10 and FIG. 11 show kinetic traces of singlet oxygen phosphorescence generated from photoexcitation of protoporphyrin IX. […] Excited state quenching of the protoporphyrin IX by the two compounds is unlikely to occur at these low stabilizer concentrations (μM).
In the previous experiments, singlet oxygen was generated by pulsed laser excitation in the UV spectral region (355 nm) of protoporphyrory IX. […] This was explained by a simple optical screening mechanism, where the compound of Formula I(a)(1) and alkoxy crylene absorb the UV light.
In this example, laser excitation was performed with visible light at 532 nm, where the compound of Formula I(a)(1) and the alkoxy crylene compound are transparent. […] The absence of singlet oxygen suppression with 532 nm excitation supports the optical screening mechanism with 355 nm excitation. […]

[6] = Singlet oxygen generation by stabilizers upon direct UV photolysis at 355 nm; assay type: physicochemical; conditions: air saturated CCl4, benzophenone as reference
Method: To investigate to what extent the stabilizers can generate singlet oxygen upon direct UV photolysis, singlet oxygen phosphorescence measurements were performed under photolysis at 355 nm. For these experiments CCl4 was selected as solvent, because of the long lifetime of singlet oxygen in this solvent, which makes these experiments easier to perform. Weak singlet oxygen signals were observed upon photolysis at 355 nm (FIG. 12). Using benzophenone as reference (quantum yield of singlet oxygen generation: 0.35) the low quantum yields of singlet oxygen generation were estimated: compound of Formula I(a)(1): 0.015 and alkoxy crylene: ˜0.001.
To ensure that the observed weak singlet oxygen signals truly originated from the two compounds and not from possible impurities in the sample or solvent, singlet oxygen phosphorescence excitation spectra were recorded.

Structure (SMILES): COC(=O)C(C#N)=C1c2ccccc2C(=O)c2ccccc21 [Formula II(a)(1)]
- relative cell viability (HaCat cells [1]; 8 mM ALA, 3 minutes irradiation, 24 hours culture, vs normal cell control): 61%
- treated cells that survived (HaCat cells [1]; after irradiation): About 50%
- solubility in PBS buffer and cell culture medium (in words) [2]: especially difficult to dissolve
- stability of solution ([2]; 0.05 mM in PBS buffer): not observed to be stable for long
- precipitation ([2]; one hour after adding to PBS buffer or cell culture medium): almost all Formula II(a)(1) precipitatde
- Free Radicals (%) ([3]; 1.25 mM): 92%
- Free Radicals (a.u.) ([3]; 1.25 mM): 2311 ± 331 a.u.
- Free Radicals (%) ([3]; 2.5 mM): 46%
- Free Radicals (a.u.) ([3]; 2.5 mM): 1162 ± 225 a.u.
- Free Radicals (%) ([3]; 5 mM): 11%
- Free Radicals (a.u.) ([3]; 5 mM): 270 ± 88 a.u.
- Free Radicals (%) ([3]; 10 mM): 19%
- Free Radicals (a.u.) ([3]; 10 mM): 475 ± 212 a.u.
- reduction of visible light-induced free radicals in skin ([3]; dose-dependent, maximum): up to 89%
- free radical reduction compared with Tocopherol ([3]; same conditions): superior to Tocopherol
- dark toxicity (HaCat cells [4]): a little toxicity

- quantum yield of singlet oxygen generation [6]: 0.015
Structure (SMILES): COC(=O)C(C#N)=C1c2ccccc2-c2ccccc21 [Formula I(a)(1)]
- singlet oxygen phosphorescence ([5]; 355 nm excitation, 250 μM stabilizer): significantly reduced singlet oxygen phosphorescence
- concentration above which the amount of generated singlet oxygen was reduced ([5]; 532 nm excitation): above 3 mM

— patent publication US9611246B2, “Compositions, apparatus, systems, and methods for resolving electronic excited states” (HALLSTAR INNOVATIONS CORP., priority 2012, dated 2017)
